≈ marks a conversion by molar mass, not a printed value.
Assays:
[1] = target: T1, Serine/threonine-protein kinase/endoribonuclease IRE1 (Homo sapiens, UniProt O75460); test: Inhibition of IRE1alpha RNase activity (unknown origin) using XBP1 as substrate preincubated for 1 hr followed by thapsigargin stimulation for 5 hrs by One-Glo luciferase reagent based luminescence assay
[2] = target: T1, Serine/threonine-protein kinase/endoribonuclease IRE1; test: Inhibition of IRE1alpha RNase activity (Q470 to L977 residues) (unknown origin) expressed in Sf9 cells using mini-XBP-1 stem-loop RNA as substrate measured every 2 mins interval for 50 mins by FRET assay
[3] = target: T1, Serine/threonine-protein kinase/endoribonuclease IRE1; test: Inhibition of His-tagged IRE1alpha (G547 to L977 residues) (unknown origin) expressed in Sf9 cells preincubated with anti-His Europium labeled antibody for 1 hr prior to compound addition followed by tracer 236 addition and measured after 1 hr by TR-FRET assay
[4] = Apparent permeability across apical to basolateral side in MDCK cells at 10 uM incubated for 3 hrs by LC-MS/MS method; format: ADME, cell-based, Canis lupus familiaris; conditions: dog
[5] = Plasma protein binding in mouse incubated for 4 hrs by LC-MS/MS based rapid equilibrium dialysis method; format: ADME, cell-free; conditions: read-out: PPB (converted)
[6] = Kinetic solubility of compound at pH 7.4; format: physicochemical; conditions: buffer, read-out: Kinetic_solubility
[7] = Volume of distribution at steady state in CD-1 mouse at 10 mg/kg, po or 1 mg/kg, iv measured upto 24 hrs by LC-MS/MS analysis; format: ADME, organism-based; conditions: in vivo
[8] = Half-life in CD-1 mouse at 10 mg/kg, po or 1 mg/kg, iv measured upto 24 hrs by LC-MS/MS analysis; format: ADME, organism-based; conditions: in vivo
[9] = Bioavailability in CD-1 mouse at 10 mg/kg, po or 1 mg/kg, iv measured upto 24 hrs by LC-MS/MS analysis; format: ADME, organism-based; conditions: in vivo

T1 sequence (O75460 whole entry, the tested form may be a part): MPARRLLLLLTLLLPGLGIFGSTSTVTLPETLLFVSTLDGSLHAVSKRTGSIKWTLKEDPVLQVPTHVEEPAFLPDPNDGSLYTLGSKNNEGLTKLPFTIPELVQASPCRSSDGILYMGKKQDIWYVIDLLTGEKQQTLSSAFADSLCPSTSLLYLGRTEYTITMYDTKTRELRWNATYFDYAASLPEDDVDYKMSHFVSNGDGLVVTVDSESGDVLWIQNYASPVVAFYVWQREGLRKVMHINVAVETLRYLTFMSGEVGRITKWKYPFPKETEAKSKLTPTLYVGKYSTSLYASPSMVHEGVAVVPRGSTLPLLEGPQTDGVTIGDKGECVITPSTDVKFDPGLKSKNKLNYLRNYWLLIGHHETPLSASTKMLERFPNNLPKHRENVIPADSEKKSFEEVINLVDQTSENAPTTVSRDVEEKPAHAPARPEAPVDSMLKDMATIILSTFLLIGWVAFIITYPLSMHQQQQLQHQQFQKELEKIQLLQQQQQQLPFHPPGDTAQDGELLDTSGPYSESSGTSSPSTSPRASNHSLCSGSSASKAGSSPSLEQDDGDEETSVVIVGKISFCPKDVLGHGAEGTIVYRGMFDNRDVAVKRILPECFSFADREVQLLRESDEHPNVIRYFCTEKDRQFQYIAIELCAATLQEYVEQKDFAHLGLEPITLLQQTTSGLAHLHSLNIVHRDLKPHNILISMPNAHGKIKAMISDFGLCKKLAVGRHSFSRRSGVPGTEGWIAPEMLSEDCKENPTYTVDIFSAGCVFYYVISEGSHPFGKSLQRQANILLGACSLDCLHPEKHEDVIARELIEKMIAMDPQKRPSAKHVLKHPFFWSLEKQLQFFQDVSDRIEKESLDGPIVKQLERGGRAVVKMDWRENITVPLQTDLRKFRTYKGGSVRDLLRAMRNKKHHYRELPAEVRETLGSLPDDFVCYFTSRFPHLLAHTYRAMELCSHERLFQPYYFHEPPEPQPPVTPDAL

| IC50 [1] | IC50 [2] | IC50 [3] | Papp A→B at 3 h, 10 µM [4] | fraction unbound at 4 h [5] | solubility kinetic [6] | Vdss [7] | half-life [8] | bioavailability [9] | SMILES |
| --- | --- | --- | --- | --- | --- | --- | --- | --- | --- |
| 4400 nM | 170 nM | 29 nM |  |  |  |  |  |  | Cc1cc(NS(=O)(=O)Cc2ccccc2)ccc1Oc1ncccc1-c1ccnc(N[C@H]2CCCNC2)n1 |
| 35 nM | 2.1 nM | 0.39 nM |  |  |  |  |  |  | Cc1ccc2c(NS(=O)(=O)CCC(F)(F)F)c(F)ccc2c1Oc1ncccc1-c1ccnc(N[C@H]2CCCNC2)n1 |
| 5900 nM | 46 nM | 660 nM |  |  |  |  |  |  | Cc1ccc(CNC(=O)N2CCC[C@]3(CCN(Cc4ccc(Cl)c(Cl)c4)C3)C2)cc1 |
| 2300 nM | 420 nM | 46 nM |  |  |  |  |  |  | Cc1ccc2c(NS(=O)(=O)c3ccccc3Cl)cccc2c1Oc1ncccc1-c1ccnc(N[C@@H]2CCCNC2)n1 |
| 200 nM | 17 nM | 2.2 nM |  |  |  |  |  |  | Cc1ccc2c(NS(=O)(=O)C3CCCCC3)cccc2c1Oc1ncccc1-c1ccnc(N[C@H]2CCCNC2)n1 |
| 22 nM | 7.4 nM | 0.59 nM | 7.3 ×10⁻⁶ cm/s | 0.009 | 46 µM (≈ 27.7 µg/mL) | 1.04 L/kg | 1.56 h | 109% | C[C@@]1(F)CNC[C@@H](Nc2nccc(-c3cccnc3Oc3cc(F)c(NS(=O)(=O)Cc4ccccc4)c(F)c3F)n2)C1 |
| 18 nM | 17 nM | 0.35 nM |  |  |  |  |  |  | Cc1ccc2c(NS(=O)(=O)Cc3ccccc3)cccc2c1Oc1ncccc1-c1ccnc(N[C@H]2CCCNC2)n1 |
| 9000 nM | 2100 nM | 65 nM |  |  |  |  |  |  | Cc1ccc2c(NS(=O)(=O)c3ccccc3Cl)cccc2c1Oc1ncccc1-c1ccnc(NC2CCC(=O)NC2)n1 (centres undefined) |
| 26000 nM | > 10000 nM | 42 nM |  |  |  |  |  |  | Cc1ccc2c(NS(=O)(=O)c3ccccc3Cl)cccc2c1Oc1ncccc1-c1ccnc(N[C@H]2CCCOC2)n1 |
| 44 nM | 4.5 nM | 0.29 nM | 2.8 ×10⁻⁶ cm/s |  |  |  |  |  | Cc1cc(Oc2ncccc2-c2ccnc(N[C@H]3CCCNC3)n2)c(F)c(F)c1NS(=O)(=O)Cc1ccccc1 |
| 88 nM | 2.9 nM | 0.98 nM | 2.1 ×10⁻⁶ cm/s |  |  |  |  |  | O=S(=O)(Cc1ccccc1)Nc1ccc(Oc2ncccc2-c2ccnc(N[C@H]3CCCNC3)n2)c(F)c1F |
| 180 nM | 200 nM | 36 nM |  |  |  |  |  |  | CC(C)(C)c1nc(-c2ccc(NC(=O)Nc3cccc(C(F)(F)F)c3)c3ccccc23)c2c(N)nccn12 |
|  |  | 0.85 nM |  |  |  |  |  |  | Cc1cc(NS(=O)(=O)c2ccccc2Cl)c2ccccc2c1Oc1ncccc1-c1ccnc(N[C@H]2CC[C@H](N)CC2)n1 |
| 84 nM | 8.7 nM | 1.1 nM |  |  |  |  |  |  | Cc1ccc2c(NS(=O)(=O)CCC(F)(F)F)cccc2c1Oc1ncccc1-c1ccnc(N[C@H]2CCCNC2)n1 |
| 2700 nM | 23 nM | 2 nM |  |  |  |  |  |  | O=S(=O)(Cc1ccccc1)Nc1c(F)cc(Oc2ncccc2-c2ccnc(N[C@@H]3CNC[C@H](F)C3)n2)c(F)c1F |
| 300 nM | 19 nM | 1.8 nM |  |  |  |  |  |  | Cc1ccc2c(NS(=O)(=O)CCC3CC3)cccc2c1Oc1ncccc1-c1ccnc(N[C@H]2CCCNC2)n1 |

Source: ChEMBL document CHEMBL5512667, “Discovery of Potent, Selective, and Orally Available IRE1α Inhibitors Demonstrating Comparable PD Modulation to IRE1 Knockdown in a Multiple Myeloma Model” (J Med Chem, 2024)
